Values of other authors, collected in patent US20240148879A1, “GLP-1R, GIP-R AND/OR GCGR AGONISTS, FORMULATIONS, AND METHODS OF USE” (Spitfire Pharma LLC, priority 2021, published 2024).
Bridge positions count the residues as written; N and C are the ends. Ends that are not written are not given here.

Key:
[1] = 12 weeks

Compound | reduction in liver fat content (6 weeks) | NASH-related alanine aminotransferase (ALT) reduction (compared with liraglutide alone) | degree of weight loss (over 26 weeks of administration) | reduction in body weight [1]
CCCCCCCCCCCCCCCC(=O)N[C@@H](CCC(=O)NCCCC[C@H](NC(=O)[C@H](CC(=O)O)NC(=O)[C@H](CO)NC(=O)[C@@H](NC(=O)[C@H](Cc1ccccc1)NC(=O)[C@@H](NC(=O)CNC(=O)[C@H](CCC(N)=O)NC(=O)[C@H](CO)NC(=O)[C@@H](N)Cc1c[nH]cn1)[C@@H](C)O)[C@@H](C)O)C(=O)N[C@@H](CO)C(=O)N[C@@H](CCC(=O)O)C(=O)N[C@@H](Cc1ccc(O)cc1)C(=O)N[C@@H](CC(C)C)C(=O)N[C@@H](CC(=O)O)C(=O)N[C@@H](CO)C(=O)N[C@@H](CCC(=O)O)C(=O)N[C@@H](CCCNC(=N)N)C(=O)N[C@@H](C)C(=O)N[C@@H](CCCNC(=N)N)C(=O)N[C@@H](CC(=O)O)C(=O)N[C@@H](Cc1ccccc1)C(=O)N[C@H](C(=O)N[C@@H](C)C(=O)N[C@@H](Cc1c[nH]c2ccccc12)C(=O)N[C@@H](CC(C)C)C(=O)N[C@@H](CCC(=O)O)C(=O)N[C@@H](C)C(=O)NCC(=O)NCC(=O)O)C(C)C)C(=O)O [cotadutide] | 39% | greater improvement | 5.4% | 
JNJ 64565111: a balanced dual agonist (HAQGTFTSDYSKYLDEKRAKEFVQWLMNTX; lactam 16-20; X not resolved here; also: Fc carrier conjugate) |  |  |  | 8%
